Reference: patent US10100366B2, “Methods of detecting cancers sensitive to cabozantinib” (Oregon Health & Science University, priority 2015, dated 2018)

Assays:
[1] = target: T1, Ba/F3 cells expressing native CD74-ROS1 (Homo sapiens, UniProt P08922); assay: Cell growth/viability assay (MTS), Ba/F3 native CD74-ROS1; format: cell-based; conditions: 72 h exposure, read-out: IC50, growth inhibition
T1 construct: CD74 (fusion partner, N-terminal part of CD74); expressed in transfected cells; host or cells: Ba/F3 (murine pro-B), retroviral transduction, IL-3 withdrawn; the other entry of the earlier key: CD74 (P04233, HLA class II histocompatibility antigen gamma chain)
Experimental: (§1) CD74-ROS1D2033N was generated using site-directed mutagenesis by following manufacturer's protocol (Agilent). Ba/F3 cells were maintained at densities of 0.5-1.5×10^6 cells/mL and infected with retrovirus encoding native or mutant versions of human CD74-ROS1. GFP-based selection of transduced cells was performed with a FACSAria cell sorter (BD Biosciences). Stable cell lines were washed with complete medium to remove IL-3. Cells that grew out after IL-3 withdrawal were maintained in complete medium and used for in vitro assays.
(§2) Inhibitors were prepared as 1 mM stocks in DMSO prior to each experiment. […] Ba/F3 cells expressing CD74-ROS1 constructs were seeded (800 cells/well; 25 μL) into drug plates using a Multidrop Combi Reagent Dispenser (Thermo Scientific), and plates were incubated for 72 h at 37° C., 5% CO2. Viability was measured using a methanethiosulfonate (MTS)-based assay (CellTiter96 Aqueous One Solution; Promega) read on a Biotek Synergy 2 plate reader. Proliferation experiments were performed three independent times in triplicate.

[2] = target: T2, Ba/F3 cells expressing CD74-ROS1 D2033N (Homo sapiens, UniProt P08922, D2033N); assay: Cell growth/viability assay (MTS), Ba/F3 CD74-ROS1 D2033N; format: cell-based
T2 construct: CD74 (fusion partner, N-terminal part of CD74); expressed in transfected cells; host or cells: Ba/F3 (murine pro-B), retroviral transduction, IL-3 withdrawn; the other entry of the earlier key: CD74 (P04233, HLA class II histocompatibility antigen gamma chain)
Experimental: as §1, §2

[3] = system: CD74-ROS1-rearranged lung adenocarcinoma with acquired CD74-ROS1 D2033N mutation; assay: Patient case: cabozantinib after acquired crizotinib resistance (phase II trial NCT01639508), RECIST v1.1; format: in vivo, human; conditions: one patient, 60 mg daily, at 12 weeks
Experimental: The patient received cabozantinib at a dose of 60 mg daily in 28-day cycles as part of an ongoing phase II clinical trial (NCT01639508) with an arm for ROS1-rearranged lung cancers. Inclusion criteria for patients in this trial were as follows: pathologic or cytologic evidence of non-small-cell lung cancer (NSCLC), clinical stage IV or recurrent/medically inoperable disease, a Karnofsky performance status of more than 70%, a life expectancy of more than 12 weeks, adequate hematologic, renal, and hepatic function, and measurable disease. Informed consent was obtained after the nature and possible consequences of the studies were explained. Treatment was discontinued in the event of disease progression, unacceptable toxicity, or patient withdrawal. Dose reductions were permitted as per a prescribed algorithm. Response was assessed using the Response Evaluation Criteria in Solid Tumors (RECIST) version 1.1 (Eisenhauer E A et al, Eur J Cancer 45, 228-247 (2009); incorporated by reference herein). Imaging was performed at baseline, 4 weeks, and every 8 weeks thereafter. In addition, scans to confirm response were performed as per RECIST. […]
Of 644 sequencing reads over that specific region of ROS1 that were at […] depth, the variant frequency of c.6097G>A was 14% in the crizotinib-resistant tumor specimen and undetectable the matched normal peripheral blood control. […]

Ba/F3 CD74-ROS1 cells = assay: Immunoblot analysis of ROS1 and downstream effector phosphorylation, native CD74-ROS1 cells; format: cell-based, human; conditions: 2 h treatment
Experimental: Ba/F3 CD74-ROS1 and CD74-ROS1D2033N […] cells were treated with the indicated concentrations of inhibitors for 2 h, pelleted, washed once in ice-cold PBS, and lysed in 200 μL of cell lysis buffer (Cell Signaling Technology) that was supplemented with 0.25% deoxycholate, 0.05% SDS, and protease and phosphatase inhibitors. Equal amounts of protein were extracted with SDS sample buffer for 15 min at 80° C. and resolved on 4-15% Tris-glycine or 4-12% Bis-Tris precast gels (Criterion; Bio-Rad). Proteins transferred to Immobilon-FL membranes (Millipore) were probed with: phospho-ROS1 [Cell Signaling Technology (CST); 3078, 1:1000], total ROS1 (CST; 3266, 1:1000), phospho-ERK1/2 (CST; 9101, 1:1000), total ERK2 (Santa Cruz; sc-1647, 1:2000), phospho-AKT (CST; 4060, 1:1000), AKT (BD Transduction Laboratories; 610860, 1:1000), pSHP2 (CST; 3703), pSTAT3 (CST, 9131), and GAPDH (Ambion; AM4300, 1:5000). Blots were imaged using either a LI-COR Odyssey imaging system or the Bio-Rad ChemiDoc imaging station according to the manufacturer's protocol for immunoblot detection with use of Infrared dye or horseradish peroxidase-conjugated secondary antibodies, respectively.

[4] = system: CD74-ROS1-rearranged lung adenocarcinoma; assay: Patient case: crizotinib treatment, response by RECIST v1.1; format: in vivo, human; conditions: one patient, 250 mg twice daily
Description: A never smoker with metastatic lung adenocarcinoma involving the pleura received three cycles of first-line systemic therapy with cisplatin, pemetrexed, and bevacizumab (FIG. 1, FIG. 9).

[5] = system: ROS1-rearranged lung cancers; conditions: phase 1 expansion cohort data; cited from earlier work

T2 sequence (P08922 1883-2347 D2033N limits assumed): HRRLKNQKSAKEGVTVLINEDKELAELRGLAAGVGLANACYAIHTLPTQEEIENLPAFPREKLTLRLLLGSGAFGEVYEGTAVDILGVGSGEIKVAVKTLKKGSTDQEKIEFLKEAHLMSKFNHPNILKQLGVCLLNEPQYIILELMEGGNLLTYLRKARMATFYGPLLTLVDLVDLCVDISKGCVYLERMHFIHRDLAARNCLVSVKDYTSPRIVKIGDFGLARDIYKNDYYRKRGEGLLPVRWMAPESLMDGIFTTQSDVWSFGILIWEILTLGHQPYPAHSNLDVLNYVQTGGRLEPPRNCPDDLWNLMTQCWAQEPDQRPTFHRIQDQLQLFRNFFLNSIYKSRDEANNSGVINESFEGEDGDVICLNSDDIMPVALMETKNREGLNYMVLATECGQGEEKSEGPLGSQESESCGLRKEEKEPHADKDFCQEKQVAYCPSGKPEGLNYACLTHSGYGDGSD
T1 sequence (P08922 with tags, fused parts or gaps): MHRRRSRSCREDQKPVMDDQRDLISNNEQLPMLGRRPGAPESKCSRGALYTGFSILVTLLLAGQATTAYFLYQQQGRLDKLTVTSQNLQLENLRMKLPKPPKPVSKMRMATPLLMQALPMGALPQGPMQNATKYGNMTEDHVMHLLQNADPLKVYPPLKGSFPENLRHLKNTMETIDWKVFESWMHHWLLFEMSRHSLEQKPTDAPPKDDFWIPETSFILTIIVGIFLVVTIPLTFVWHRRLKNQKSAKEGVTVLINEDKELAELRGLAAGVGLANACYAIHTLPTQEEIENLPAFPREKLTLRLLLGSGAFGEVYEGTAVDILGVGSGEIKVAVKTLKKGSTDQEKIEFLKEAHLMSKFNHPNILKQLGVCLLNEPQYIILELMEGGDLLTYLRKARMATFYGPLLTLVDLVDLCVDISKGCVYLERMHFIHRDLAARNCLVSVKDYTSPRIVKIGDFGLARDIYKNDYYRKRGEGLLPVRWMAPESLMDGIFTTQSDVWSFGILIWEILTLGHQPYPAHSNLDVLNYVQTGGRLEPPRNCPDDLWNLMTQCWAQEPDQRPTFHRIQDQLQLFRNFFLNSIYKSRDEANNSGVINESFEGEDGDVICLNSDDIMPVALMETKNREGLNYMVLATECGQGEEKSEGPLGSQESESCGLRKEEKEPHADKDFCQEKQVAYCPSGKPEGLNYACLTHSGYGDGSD

In the case of `COc1cc2nccc(Oc3ccc(NC(=O)C4(C(=O)Nc5ccc(F)cc5)CC4)cc3)c2cc1OC` [cabozantinib], the IC50 [1] is reported as 0.78 nM, the IC50 ([2]; read-out: IC50, growth inhibition, Ba/F3 CD74-ROS1D2033N cells, 72 h exposure) is reported as 2.8 nM and the “reduction in disease burden” value [3] is reported as 92%.

In the case of `Cc1cc(Nc2ncc(Cl)c(Nc3ccccc3S(=O)(=O)C(C)C)n2)c(OC(C)C)cc1C1CCNCC1` [ceritinib], the “fold decrease in sensitivity, CD74-ROS1D2033N compared to native CD74-ROS1” value ([2]; Ba/F3 cells, 72 h, ratio of IC50) is reported as 4.3 fold.

With `C[C@@H](Oc1cc(-c2cnn(C3CCNCC3)c2)cnc1N)c1c(Cl)ccc(F)c1Cl` [crizotinib] the “inhibition of phosphorylation of ROS1 and downstream effectors SHP2, ERK1/2, AKT and STAT3” value (Ba/F3 CD74-ROS1 cells) was “dose-dependent inhibition”, the “time on drug until widespread disease progression” value [4] was 26 months and the “clinical response (in words)” value ([4]; RECIST v1.1) was “durable partial response”. The “reduction in disease burden” value ([4]; RECIST v1.1) was 64%, the median progression-free survival [5] was 19 months and the response rate [5] was 72%.

With `COc1cc2c(Oc3ccc(NC(=O)C4(C(=O)Nc5ccc(F)cc5)CC4)cc3F)ccnc2cc1OCCCN1CCOCC1` [foretinib] the “sensitivity of CD74-ROS1D2033N mutant (in words)” value ([2]; Ba/F3 cells, 72 h) was “remained highly sensitive”.
